Patent publication US20100015709A1, “Regulating Stem Cell Differentiation By Controlling 2D and 3D Matrix Elasticity” (Trustees of the University of Pennsylvania, priority 2006, published 2010)
One block for each molecule: values may come before it.

Legend:
neuronal motility = conditions: at mM concentrations; cited from earlier work
MSCs [1] = assay: Lineage marker expression (immunofluorescence, western blot, oligonucleotide array); format: cell-based, human; conditions: blebbistatin 50 μM
Description: (§1) 1) Morphological Changes and Immunofluorescence: Changes in cell shape (<4 days), especially the development of neurite-like branches (Engler et al., 2004c, supra) or spindle-like morphologies (Flanagan et al., 2002, supra), were quantified either by the number of membrane branches per mm of cell or by a “spindle factor,” referring to the major cell axis/minor cell axis, respectively. […]
Cells were fixed with formaldehyde, incubated in a 5% albumin blocking solution for 1 hour at 37° C., permeabilized with 0.5% Triton-X-100 and incubated overnight at 4° C. in 1:100 dilution of antibodies in PBS. […] Cell morphology and fluorescently labeled cells were examined on a TE300 inverted epi-fluorescent Nikon or Olympus (TIRF) microscope, imaged on a cascade CCD camera (PhotoMetrics, Huntington, Beach, Calif.), and quantified with Scion Image (Scion Corp., Frederick, Md.).
2) Western blotting: Cells (with or without blebbistatin treatment, 50 μM) were also plated on 45×50 mm coverslips to obtain enough cells for western blotting. […] Quantification of western blots was done by Scion Image software. […]

[2] = test system: MSCs, C2C12-myoblasts, hFOB-osteoblasts; assay: Creep-test micropipette aspiration, membrane cortical stiffness; format: cell-based
Description: Creep-test Micropipette Aspiration: Micropipettes were forged using a deFonbrune-type microforge (Vibratome, St. Louis, Mo.) to a radius of 2-3 μm with an approximately 25° pipette curvature so when mounted in micromanipulators (Nirishige; Japan) at an angle similar to the micropipette's curvature. The end of the pipette was flush with the cell edge. A step pressure drop was imposed on the cell membrane, causing the membrane projection, L, to aspirate into the pipette as a function of time (t), pressure drop (ΔP) and pipette radius (R), as governed by the Sato and coworkers' viscoelastic half-space model (Sato et al., J. Biomech. Eng. 112:263-268 (1990), herein incorporated by reference:
Images of the projection length were taken every 2 seconds in brightfield on a TE300 inverted Nikon microscope and cascade CCD camera (Photometrics), which allowed accurate fitting of the parameters κ, μ′, and τ to the data to determine the elastic and viscous moduli of each membrane.

[3] = test system: MSCs, C2C12-myoblasts, hFOB-osteoblasts; assay: Traction force measurement, cell pre-stress; format: cell-based; conditions: any matrix
Excerpt: Traction Force Measurements: Adhesive stresses, imposed on the matrix surface by an adherent cell, generate a displacement field from embedded beads within a soft substratum, which can be mapped on the cell if the gel can be approximated as a semi-infinite solid. Briefly, the well characterized traction force method (Butler et al., 2002, supra; Dembo et al., 1999, supra; Wang et al., 2002b, supra) uses bead displacements between images with, and without, the adherent cell to assemble a displacement field and determine Green's strain function given known material properties of the substratum (elastic modulus, Poisson's ratio, etc). The traction field was used to obtain the cell pre-stress, i.e., the net tensile force over the cell-matrix interface carried by the actin cytoskeleton across a cross-sectional area of the cell that balances cell traction forces (Wang et al., 2002b, supra).

MSCs [4] = assay: 3D hydrogel sandwich overlay, cell morphology; format: cell-based, human; conditions: treated after the overlay procedure
Description: Hydrogel Sandwich Preparation: The whole procedure is performed in a biosafety cabinet to maintain sterility. All equipment used was either sterile or sterilized by UV treatment for one hour. To produce the sandwich-like structures, cells were cultured for a given time on regular 2D substrates supported by 25 mm aminosilanized cover slips, rinsed with PBS and dried of the bulk liquid. 35 μl of the hydrogel mixture was added immediately and the sample was covered with a hydrophobic chlorosilanized glass slip to create a homogenous overlay gel. After one hour the top cover slip was carefully removed and the sandwich rinsed with PBS to remove any unbound residues. Subsequently, the gels were incubated for two hours at 37° C./5.0% CO2 in media supplemented with 1.5% or 2% cysteine (w/v) or iodacetamide solution using a shaker to cap or inactivate any remaining free thiols. […]
Immuno-staining, fluorescence microscopy, and image analysis: Cells were fixed for five minutes in a 10% solution of formaldehyde (Sigma) in PBS (Gibco) and subsequently permeabilized with a 0.5% solution of TritonX 100 (Sigma) in PBS followed by rinsing in PBS. […]
Cell area A and spindle factor r (ratio of major to minor axis of a fitted ellipse) were determined using the built-in functions of ImageJ (available at http:rsb.info.nih.gov/ij; developed by Wayne Rasband, National Institutes of Health, Bethesda, Md.). […]

hMSCs = assay: Nucleus morphology of hMSCs on gels; format: cell-based, human; conditions: 11 kPa substrates
Description: Immuno-staining, fluorescence microscopy, and image analysis: Cells were fixed for five minutes in a 10% solution of formaldehyde (Sigma) in PBS (Gibco) and subsequently permeabilized with a 0.5% solution of TritonX 100 (Sigma) in PBS followed by rinsing in PBS. Samples were then incubated in a 1:250 solution of the appropriate primary antibody in a 3% solution of BSA (Sigma) in PBS for at least 2 hours at room temperature on a rocker. To remove any unspecifically bound antibodies, the gels were incubated with a 0.5% solution of TritonX 100 for five minutes and rinsed with PBS twice, followed by incubation with secondary antibodies (1:250 in 3% BSA in PBS) and rhodamine-phalloidin (Sigma) for at least one hour on a rocker at room temperature. […]
Cell area A and spindle factor r (ratio of major to minor axis of a fitted ellipse) were determined using the built-in functions of ImageJ (available at http:rsb.info.nih.gov/ij; developed by Wayne Rasband, National Institutes of Health, Bethesda, Md.).
Since matrix elasticity not only influences cell and cytoskeleton morphology, but also the differentiation of hMSCs, and therefore global changes in patterns of gene expression, the morphology of the nucleus was analyzed in terms of projected area A and spindle factor of the projected area r to gain insight into the transduction of mechanical signals from the matrix to the nucleus. […]

vertebrate cells = conditions: cited from earlier work
MSCs [5] = assay: MSC morphology (branching, spindle factor, spreading) on collagen-coated gels; format: cell-based, human
Description: Cell Culture: Human Mesenchymal Stem Cells (MSCs; Osiris Therapeutics; Baltimore, Md. or Lonza), human osteoblasts (hFOBs; ATCC, Manassas, Va.), primary human skin fibroblasts (FC7) (Engler et al., 2004c, supra), and murine myoblasts (C2C12s; ATCC) were cultured in normal growth media, such as low glucose DMEM (Invitrogen) supplemented with 10% fetal bovine serum (FBS, Sigma) and 1% penicillin/streptomycin (Invitrogen) in regular tissue culture treated flasks (Corning). See also, U.S. Ser. No. 11/351,420. Media was exchanged every other day and cells were used up to passage number nine.
(§2) To inhibit proliferation, cells were exposed to mitomycin C (10 μg/ml) for 2 hr and washed three times with media prior to plating. Blebbistatin (50 μM; EMD Biosciences, Inc., San Diego, Calif.), a NMM II inhibitor, was applied with every media change and was stable in culture media for up to 48 hours, as determined by thin layer chromatography.
as §1

[6] = biological target: myosin light chain kinase (MLCK) (Homo sapiens, UniProt Q15746); conditions: at concentrations inhibiting NMM II ATPase; cited from earlier work
NMM II ATPase = conditions: cited from earlier work
[7] = Stability in culture media by thin layer chromatography; format: physicochemical; conditions: 50 μM
Description: as §2

Sequence of myosin light chain kinase (MLCK) (Q15746 whole entry): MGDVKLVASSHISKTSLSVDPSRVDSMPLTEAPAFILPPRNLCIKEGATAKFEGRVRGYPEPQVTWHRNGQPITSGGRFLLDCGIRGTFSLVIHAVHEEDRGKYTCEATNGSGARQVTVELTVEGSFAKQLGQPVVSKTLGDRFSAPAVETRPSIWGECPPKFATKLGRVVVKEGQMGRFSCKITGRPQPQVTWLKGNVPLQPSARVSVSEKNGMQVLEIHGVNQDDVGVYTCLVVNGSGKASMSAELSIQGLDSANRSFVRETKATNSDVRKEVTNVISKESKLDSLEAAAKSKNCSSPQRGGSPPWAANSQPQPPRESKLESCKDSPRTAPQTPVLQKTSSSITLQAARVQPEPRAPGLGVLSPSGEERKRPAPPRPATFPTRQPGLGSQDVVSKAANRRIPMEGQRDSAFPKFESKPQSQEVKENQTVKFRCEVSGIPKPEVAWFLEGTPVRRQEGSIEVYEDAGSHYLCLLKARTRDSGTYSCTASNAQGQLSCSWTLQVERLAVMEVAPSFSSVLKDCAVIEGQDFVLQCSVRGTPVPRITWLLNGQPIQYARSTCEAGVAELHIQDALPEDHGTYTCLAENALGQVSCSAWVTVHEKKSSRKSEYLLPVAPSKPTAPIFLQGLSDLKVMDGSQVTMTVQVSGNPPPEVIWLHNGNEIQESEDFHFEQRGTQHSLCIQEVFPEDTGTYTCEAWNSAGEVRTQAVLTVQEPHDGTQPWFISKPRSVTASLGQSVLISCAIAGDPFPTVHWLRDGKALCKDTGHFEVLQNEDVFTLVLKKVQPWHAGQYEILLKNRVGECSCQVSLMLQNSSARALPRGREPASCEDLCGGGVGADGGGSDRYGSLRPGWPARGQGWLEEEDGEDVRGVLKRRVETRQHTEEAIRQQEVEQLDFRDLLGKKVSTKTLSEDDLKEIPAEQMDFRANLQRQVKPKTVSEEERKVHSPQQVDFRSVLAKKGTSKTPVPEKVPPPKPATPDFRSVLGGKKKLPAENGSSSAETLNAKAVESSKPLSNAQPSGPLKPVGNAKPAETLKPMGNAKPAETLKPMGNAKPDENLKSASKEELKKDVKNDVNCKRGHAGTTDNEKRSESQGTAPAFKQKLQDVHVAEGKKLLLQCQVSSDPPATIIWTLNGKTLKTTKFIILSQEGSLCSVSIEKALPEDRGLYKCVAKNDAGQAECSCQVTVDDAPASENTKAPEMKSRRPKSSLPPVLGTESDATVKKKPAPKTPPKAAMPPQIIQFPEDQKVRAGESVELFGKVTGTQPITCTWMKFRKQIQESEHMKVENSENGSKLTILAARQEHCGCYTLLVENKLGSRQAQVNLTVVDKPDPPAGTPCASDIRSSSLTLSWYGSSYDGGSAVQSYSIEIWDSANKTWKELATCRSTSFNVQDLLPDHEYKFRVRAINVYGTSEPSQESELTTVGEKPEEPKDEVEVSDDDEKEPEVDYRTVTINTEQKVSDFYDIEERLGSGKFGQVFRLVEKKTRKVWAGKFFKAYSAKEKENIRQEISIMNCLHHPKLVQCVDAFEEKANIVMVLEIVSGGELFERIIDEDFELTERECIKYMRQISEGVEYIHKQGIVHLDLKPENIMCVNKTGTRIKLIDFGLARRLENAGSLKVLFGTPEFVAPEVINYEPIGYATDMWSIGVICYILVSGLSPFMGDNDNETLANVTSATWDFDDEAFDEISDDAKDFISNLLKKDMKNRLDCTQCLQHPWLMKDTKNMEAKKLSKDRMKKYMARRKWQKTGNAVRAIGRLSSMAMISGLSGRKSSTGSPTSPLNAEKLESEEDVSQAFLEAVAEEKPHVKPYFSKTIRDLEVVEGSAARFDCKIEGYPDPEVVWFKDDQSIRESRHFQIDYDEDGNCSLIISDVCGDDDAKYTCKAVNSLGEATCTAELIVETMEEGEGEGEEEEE

SMILES: CC(=O)/C(C)=N/O [BDM]
neuronal motility (neuronal motility): block neuronal motility

stability in culture media [7]: up to 48 hours
SMILES: Cc1ccc2c(c1)C(=O)C1(O)CCN(c3ccccc3)C1=N2 (centres unmarked) [blebbistatin]
lineage marker expression by MSCs (MSCs [1]): blocked all marker expression
development of cortical stiffness κ ([2]; any matrix): prevented any of the cells from developing
softening of cell membranes (membrane cortical stiffness) ([2]; micropipette aspiration, all gels): more than 3 fold
development of pre-stress σ [3]: prevented any of the cells from developing
actin stress fibers of cells in sandwich overlay (MSCs [4]): lacked any organized actin stress fibers
spindle factor r of cells in sandwich overlay (MSCs [4]): not significantly different from that of the 2D control
matrix-dependent change of nucleus projected area and aspect ratio (hMSCs): inhibited
cell blebbing, directed cell migration and cytokinesis (vertebrate cells): blocking cell blebbing and rapidly disrupting directed cell migration and cytokinesis
branching, elongation and spreading of MSCs (MSCs [5]; blebbistatin 50 μM, cells on any substrate): block branching, elongation, and any significant spreading of MSCs
effect on myosin light chain kinase [6]: without affecting
drug concentration inhibiting NMM II ATPase activity (NMM II ATPase): < 10 µM

SMILES: CO[C@@]12[C@H](COC(N)=O)C3=C(C(=O)C(C)=C(N)C3=O)N1C[C@@H]1N[C@@H]12 [mitomycin-C, mitomycin C]
average cell shape after inhibition of proliferation (MSCs [5]; mitomycin C 10 μg/ml for 2 hr before plating): little impact on average cell shape
